Converted amounts (≈) assume the structure as drawn. Where a SMILES comes first, the peptide text is derived from it. Bridges are numbered along the chain shown (N, C = ends). Roman numbers before positions name the chains, in order. [ ]: non-standard residue; d: D form. Tle = CC(C)(C)[C@H](N)C(=O)O; Hiv = CC(C)[C@H](O)C(=O)O; dDab = NCC[C@@H](N)C(=O)O; Dab = NCC[C@H](N)C(=O)O; Abu = CC[C@H](N)C(=O)O; Dap = NC[C@H](N)C(=O)O
Legend:
Format in all cases: cell-based
[1] = system: Acinetobacter baumannii 872842; conditions: 872842
In short: (§1)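 MIC in μg/mL, read as absence of visible growth after 18-20 h incubation at 35° C, by standard CLSI microdilution. Peptides tested in two-fold serial dilution in cation-adjusted MH-II broth containing 0.002% (final) Polysorbate 80, against roughly 10^6 CFU/mL inocula.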

[2] = system: Acinetobacter baumannii DSM 30008; conditions: DSM 30008
In short: as §1

[3] = system: Enterobacter cloacae 848840; conditions: 848840
In short: as §1

Escherichia coli 926415 = conditions: 926415
In short: as §1

[4] = system: Escherichia coli ATCC 25922; conditions: ATCC 25922
In short: as §1

[5] = system: Klebsiella pneumoniae 968733; conditions: 968733
In short: as §1

[6] = system: Klebsiella pneumoniae SSI #3010; conditions: SSI #3010
In short: as §1

[7] = system: Pseudomonas aeruginosa ATCC 27853; conditions: ATCC 27853
In short: as §1

[8] = system: human red blood cells (hRBC); test: Hemolysis; conditions: red cells of human, 1 h, 200
In short: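 Percent hemolysis relative to 2% Triton X-100 (100%) and PBS/10% water (0%), from blank-corrected OD540 of diluted supernatants. Peptides tested at 200 μg/mL against 20% (v/v) washed human erythrocytes, 1 h, 37° C, shaking at 300 rpm.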

| Structure (SMILES) | MIC [1] | Acinetobacter baumannii DSM 30008 MIC [2] | MIC [3] | MIC (Escherichia coli 926415) | Escherichia coli ATCC 25922 MIC [4] | MIC [5] | Klebsiella pneumoniae SSI #3010 MIC [6] | Pseudomonas aeruginosa ATCC 27853 MIC [7] | Hemolysis at 200 μg/mL [8] |
| --- | --- | --- | --- | --- | --- | --- | --- | --- | --- |
| CC(=O)N[C@H](C(=O)N[C@H]1CSSC[C@@H](C(=O)N[C@@H](C)C(=O)N[C@@H](C(N)=O)[C@H](C)O)NC(=O)[C@H](C(C)C)NC(=O)[C@H](CO)NC(=O)[C@H](Cc2c[nH]c3ccccc23)NC(=O)[C@H](CO)NC(=O)[C@@H](CCN)NC(=O)[C@H](CCC(=O)N[C@@H](CCN)C(=O)N[C@H](C(=O)N[C@@H](CN)C(=O)N[C@H]2CCNC(=O)[C@H]([C@@H](C)O)NC(=O)[C@H](CCN)NC(=O)[C@H](CCN)NC(=O)[C@H](CC(C)C)NC(=O)[C@@H](CC(C)C)NC(=O)[C@H](CCN)NC2=O)[C@@H](C)O)NC(=O)[C@H](CCN)NC(=O)[C@H](Cc2ccc(O)cc2)NC1=O)C(C)C [Ex. 368] (I: Ac-VCY[Dab]E[dDab]SWSVCA[dT]-NH2 / II: [Dab]T[Dap][Dab][Dab][dL]L[Dab][Dab]T; disulfide I:2-I:11; amide I:5-II:N; lactam II:4-II:C) | 0.03125 µg/mL (≈ 0.0126 µM) | 0.007813 µg/mL | 0.03125 µg/mL (≈ 0.0126 µM) | 0.01562 µg/mL (≈ 0.00629 µM) | 0.01562 µg/mL | 0.0625 µg/mL (≈ 0.0252 µM) | 0.03125 µg/mL | 0.0625 µg/mL | 1% |
| CC[C@@H]1NC(=O)[C@@H](CC(C)C)NC(=O)[C@H](CCN)NC(=O)[C@@H](NC(=O)[C@H](CN)NC(=O)[C@@H](NC(=O)[C@H](CCN)NC(=O)CC[C@@H]2NC(=O)[C@H](CCN)NC(=O)[C@H](Cc3ccc(O)cc3)NC(=O)[C@@H](NC(=O)[C@@H](NC(C)=O)C(C)C)CSSC[C@@H](C(=O)N[C@@H](C)C(=O)N[C@H](CO)C(N)=O)NC(=O)[C@H]([C@@H](C)CC)NC(=O)[C@H](CO)NC(=O)[C@H](Cc3c[nH]c4ccccc34)NC(=O)[C@H](CO)NC(=O)[C@@H](CCN)NC2=O)[C@@H](C)O)CCNC(=O)[C@H]([C@@H](C)O)NC(=O)[C@H](CCN)NC(=O)[C@H](CCN)NC1=O [Ex. 369] (I: Ac-VCY[Dab]E[dDab]SWSICA[dS]-NH2 / II: [Dab]T[Dap][Dab][Dab][dL][Abu][Dab][Dab]T; disulfide I:2-I:11; amide I:5-II:N; lactam II:4-II:C) | 0.03125 µg/mL (≈ 0.0127 µM) | 0.007813 µg/mL | 0.03125 µg/mL (≈ 0.0127 µM) | 0.0625 µg/mL (≈ 0.0254 µM) | 0.01562 µg/mL | 0.0625 µg/mL (≈ 0.0254 µM) | 0.03125 µg/mL | 0.0625 µg/mL | <1% |
| CC(=O)N[C@H](C(=O)N[C@H]1CSSC[C@@H](C(=O)N[C@@H](CO)C(=O)N[C@@H](CC(=O)O)C(N)=O)NC(=O)[C@H](C(C)C)NC(=O)[C@H](CO)NC(=O)[C@H](Cc2c[nH]c3ccccc23)NC(=O)[C@H](CCN)NC(=O)[C@@H](CCN)NC(=O)[C@H](CCC(=O)N[C@@H](CCN)C(=O)N[C@H](C(=O)N[C@@H](CN)C(=O)N[C@H]2CCNC(=O)[C@H]([C@@H](C)O)NC(=O)[C@H](CCN)NC(=O)[C@H](CCN)NC(=O)[C@H](CC(C)C)NC(=O)[C@@H](CC(C)C)NC(=O)[C@H](CCN)NC2=O)[C@@H](C)O)NC(=O)[C@H](CO)NC(=O)[C@H](Cc2ccc(O)cc2)NC1=O)C(C)C [Ex. 371] (I: Ac-VCYSE[dDab][Dab]WSVCSD-NH2 / II: [Dab]T[Dap][Dab][Dab][dL]L[Dab][Dab]T; disulfide I:2-I:11; amide I:5-II:N; lactam II:4-II:C) | 0.0625 µg/mL (≈ 0.0249 µM) | 0.0625 µg/mL | 0.5 µg/mL (≈ 0.199 µM) | 0.25 µg/mL (≈ 0.0994 µM) | 0.0625 µg/mL | 0.5 µg/mL (≈ 0.199 µM) | 0.0625 µg/mL | 0.0625 µg/mL | 0% |
| CC(C)C[C@@H]1NC(=O)[C@@H](CC(C)C)NC(=O)[C@H](CCN)NC(=O)[C@@H](NC(=O)[C@H](CN)NC(=O)[C@@H](NC(=O)[C@H](CCN)NC(=O)CC[C@@H]2NC(=O)[C@H](CO)NC(=O)[C@H](Cc3ccc(O)cc3)NC(=O)[C@@H](NC(=O)[C@@H](O)C(C)C)CSSC[C@@H](C(=O)N[C@@H](CO)C(=O)N[C@@H](CC(=O)O)C(N)=O)NC(=O)[C@H](C(C)(C)C)NC(=O)[C@H](CO)NC(=O)[C@H](Cc3c[nH]c4ccccc34)NC(=O)[C@H](CCN)NC(=O)[C@@H](CCN)NC2=O)[C@@H](C)O)CCNC(=O)[C@H]([C@@H](C)O)NC(=O)[C@H](CCN)NC(=O)[C@H](CCN)NC1=O [Ex. 372] (I: H-[Hiv]CYSE[dDab][Dab]WS[Tle]CSD-NH2 / II: [Dab]T[Dap][Dab][Dab][dL]L[Dab][Dab]T; disulfide I:2-I:11; amide I:5-II:N; lactam II:4-II:C) | 0.125 µg/mL (≈ 0.0503 µM) | 0.03125 µg/mL | 0.25 µg/mL (≈ 0.101 µM) | 0.125 µg/mL (≈ 0.0503 µM) | 0.0625 µg/mL | 0.25 µg/mL (≈ 0.101 µM) | 0.0625 µg/mL | 0.0625 µg/mL | <1% |
| CC(=O)N[C@H](C(=O)N[C@H]1CSSC[C@@H](C(=O)N[C@@H](CO)C(=O)N[C@@H](CC(N)=O)C(N)=O)NC(=O)[C@H](C(C)C)NC(=O)[C@H](CO)NC(=O)[C@H](Cc2c[nH]c3ccccc23)NC(=O)[C@H](CCN)NC(=O)[C@@H](CCN)NC(=O)[C@H](CCC(=O)N[C@@H](CCN)C(=O)N[C@H](C(=O)N[C@@H](CN)C(=O)N[C@H]2CCNC(=O)[C@H]([C@@H](C)O)NC(=O)[C@H](CCN)NC(=O)[C@H](CCN)NC(=O)[C@H](CC(C)C)NC(=O)[C@@H](CC(C)C)NC(=O)[C@H](CCN)NC2=O)[C@@H](C)O)NC(=O)[C@H](CO)NC(=O)[C@H](Cc2ccc(O)cc2)NC1=O)C(C)C [Ex. 373] (I: Ac-VCYSE[dDab][Dab]WSVCSN-NH2 / II: [Dab]T[Dap][Dab][Dab][dL]L[Dab][Dab]T; disulfide I:2-I:11; amide I:5-II:N; lactam II:4-II:C) | 0.0625 µg/mL (≈ 0.0249 µM) | 0.03125 µg/mL | 0.25 µg/mL (≈ 0.0995 µM) | 0.125 µg/mL (≈ 0.0497 µM) | 0.0625 µg/mL | 0.125 µg/mL (≈ 0.0497 µM) | 0.0625 µg/mL | 0.0625 µg/mL | <1% |
| CC(=O)N[C@H](C(=O)N[C@H]1CSSC[C@@H](C(=O)N[C@@H](CO)C(=O)N[C@H](CC(=O)O)C(N)=O)NC(=O)[C@H](C(C)C)NC(=O)[C@H](CO)NC(=O)[C@H](Cc2c[nH]c3ccccc23)NC(=O)[C@H](CO)NC(=O)[C@@H](CCN)NC(=O)[C@H](CCC(=O)N[C@@H](CCN)C(=O)N[C@H](C(=O)N[C@@H](CN)C(=O)N[C@H]2CCNC(=O)[C@H]([C@@H](C)O)NC(=O)[C@H](CCN)NC(=O)[C@H](CCN)NC(=O)[C@H](CC(C)C)NC(=O)[C@@H](CC(C)C)NC(=O)[C@H](CCN)NC2=O)[C@@H](C)O)NC(=O)[C@H](CCN)NC(=O)[C@H](Cc2ccc(O)cc2)NC1=O)C(C)C [Ex. 374] (I: Ac-VCY[Dab]E[dDab]SWSVCS[dD]-NH2 / II: [Dab]T[Dap][Dab][Dab][dL]L[Dab][Dab]T; disulfide I:2-I:11; amide I:5-II:N; lactam II:4-II:C) | 0.25 µg/mL (≈ 0.0994 µM) | 0.0625 µg/mL | 0.25 µg/mL (≈ 0.0994 µM) | 0.5 µg/mL (≈ 0.199 µM) | 0.0625 µg/mL | 1 µg/mL (≈ 0.398 µM) | 0.0625 µg/mL | 0.125 µg/mL | <1% |
| CC(=O)N[C@H](C(=O)N[C@H]1CSSC[C@@H](C(=O)NCC(=O)N[C@H](CO)C(N)=O)NC(=O)[C@H](C(C)C)NC(=O)[C@H](CO)NC(=O)[C@H](Cc2c[nH]c3ccccc23)NC(=O)[C@H](CO)NC(=O)[C@@H](CCN)NC(=O)[C@H](CCC(=O)N[C@@H](CCN)C(=O)N[C@H](C(=O)N[C@@H](CN)C(=O)N[C@H]2CCNC(=O)[C@H]([C@@H](C)O)NC(=O)[C@H](CCN)NC(=O)[C@H](CCN)NC(=O)[C@H](CC(C)C)NC(=O)[C@@H](CC(C)C)NC(=O)[C@H](CCN)NC2=O)[C@@H](C)O)NC(=O)[C@H](CCN)NC(=O)[C@H](Cc2ccc(O)cc2)NC1=O)C(C)C [Ex. 377] (I: Ac-VCY[Dab]E[dDab]SWSVCG[dS]-NH2 / II: [Dab]T[Dap][Dab][Dab][dL]L[Dab][Dab]T; disulfide I:2-I:11; amide I:5-II:N; lactam II:4-II:C) | 0.0625 µg/mL (≈ 0.0254 µM) | 0.01562 µg/mL | 0.0625 µg/mL (≈ 0.0254 µM) | 0.125 µg/mL (≈ 0.0509 µM) | 0.01562 µg/mL | 0.0625 µg/mL (≈ 0.0254 µM) | 0.03125 µg/mL | 0.0625 µg/mL | <1% |

From patent publication US11629171B2, “Beta-hairpin peptidomimetics” (POLYPHOR AG, priority 2017, dated 2023)
